Laboratory results as given in patent US20140336220A1, “COMPOSITION FOR PREVENTING OR TREATING OBESITY COMPRISING REBAMIPIDE” (The Catholic University of Korea Industry-Academic …, priority 2011, published 2014).
“Also recorded” adds a separate entry of the source.

Assays:
[1] = tested on: animal models induced with obesity; experiment: Serum glucose, triglyceride and cholesterol by autoanalyzer; format: in vivo, mouse; details: oral administration, obese mice, FIG. 3
Description: Further, an experimental animal group was etherized and blood was collected from the heart. The collected blood was put into a centrifuge tube and centrifuged at 3000 rpm for 20 minutes, so that the serum was separated and kept in a freezer until it was analyzed at −70° C. Contents of glucose, triglyceride, total cholesterol, HDL-cholesterol, and LDL-cholesterol in the serum were analyzed using an autoanalyzer (Kuadro, Italy).

pre-adipocyte = experiment: Adipocyte differentiation of pre-adipocyte, Oil red O analysis; format: cell-based; details: vs untreated cells, dependent on dose of rebamipide, FIG. 8
Description: In order to check whether or not rebamipide has a […] inhibition effect, the inventors of the present disclosure divided pre-adipocyte in an amount of 1.2×10^4/2 ml into a 24-well plate, and when the cells were completely packed, the cells were cultured again for 48 hours. After 48 hours, differentiation of adipocyte was induced with replacement of a culture medium added with dexamethasone, insulin, and isobutylmethylxanthine. In this case, rebamipide was also used to stimulate while being dissolved in DMSO. 3 days after differentiation, differentiation of adipocyte was maintained with replacement with a culture medium added with dexamethasone and insulin once per two days. After 4 days, Oil red O analysis was carried out.

[2] = tested on: animal models induced with obesity; experiment: Adipocyte in liver frozen sections, haematoxylin and eosin and Oil red O staining; format: in vivo, mouse; details: oral administration, 51 days, H&E and Oil red O staining, vs control induced with obesity, FIG. 2
Description: In order to check fat inhibition effect of rebamipide, after supply of a high fat diet for 51 days was ended, a food was stopped at 12 hours before an experiment period was ended. Then, a frozen section (7 μm) obtained from a liver was haematoxylin and eosin staining and Oil red O staining. As a result of staining including the haematoxylin and eosin staining and Oil red O staining, it could be seen that in the liver obtained after oral administration with rebamipide, adipocyte were reduced as compared with a control induced with obesity (refer to FIG. 2).

[3] = tested on: animal group with obesity induced arthritis; experiment: Type-II-collagen-specific IgG and IgG2a in serum by ELISA; format: in vivo, mouse; details: serum 1:100, vs obesity induced arthritis group, FIG. 13
Description: Blood was collected from the heart of a mouse in each group and centrifuged at 8000 rpm for 8 minutes at 20° C., so that the mouse serum of each group was obtained from a supernatant of the blood. The serum was diluted at a ratio of 1:100, and type-II-collagen-specific IgG and IgG2a were measured by an ELISA method.

[4] = tested on: animal models induced with obesity; experiment: Obesity improvement depending on dose: weight and liver; format: in vivo, mouse
Description: In order to check an obesity improvement effect depending on a treatment concentration of rebamipide, the inventors of the present disclosure orally administered rebamipide with a dose of 30 mg/kg and 100 mg/kg to an animal models induced with obesity prepared in Example 1 and then measured weights of the rebamipide treatment group and a mouse induced with obesity as a control group. For in vitro test, on the 63rd day after treatment with rebamipide, an experimental animal was killed and the liver of the mouse was extracted, and then, a size of the mouse and a weight of the liver were measured with the naked eye.

Th17 cells = experiment: Th17 cell inhibition, flow cytometry of blood and spleen cells; format: cell-based, mouse; details: method: pre-treated at 1000 μM
Description: In order to stimulate CD4+ T cells 1×10 separated from the spleen under differentiation conditions of Th17 cells, the CD4+ T cells 1×10 were divided into a 24-well plate coated with 1 μg/Ml of an anti-CD3 antibody and treated with all of 1 μg/mL of an anti-CD28 antibody, 2 ng/ml of TGF-β, 20 ng/ml of IL-6, 10 ng/ml of anti-IL-4, and 10 ng/ml of anti-IFNr together suitable for stimulating Th17 cells. Then, the cells were stimulated for 1 hour. In this case, the cells were pre-treated with a rebamipide compound at a concentration of 1000 μM and cultured for 1 hour. The collected cells were allowed to react with a PerCP-anti-mouse CD4 antibody and a PE-anti-mouse phospho STATS antibody at 4° C. for 30 minutes in a dark field and washed with FACs buffer (0.002% sodium azide, 0.2% BSA/PBS). These cells were washed twice with Perm Wash buffer and re-floated on the FACs buffer and then analyzed with a flow cytometer.

[5] = tested on: Th17 cells and Treg cells in spleen; experiment: Th17 and Treg cells in spleen sections, confocal microscope; format: in vivo, mouse; details: obese mice treated with rebamipide, FIG. 5A, 5B
From the text: In order to investigate whether or not rebamipide according to the present disclosure affected Th17 and Treg, the inventors of the present disclosure embedded a frozen section (optimal cutting temperature compound: O.C.T. compound) using the spleen of a mouse and rapidly cooled the tissue in liquid nitrogen and attached the tissue on a slide to a thickness of 7 μm using a cryo microtome. Then, the section was fixed with acetone and coated with 10% normal goat serum and blocked from a non-specific reaction for 30 minutes. Thereafter, the section was reacted at 4° C. overnight with primary antibodies, i.e. FITC-labeled anti-mFoxp3 Ab, PElabeled anti-mCD4 Ab, and APC-labeled anti-CD25 Ab, diluted with PBS (pH 7.5) at a ratio of 1:100 for Treg analysis and reacted with FITC-labeled anti-mCD4 Ab, and PE-labeled anti-mIL-17 for Th17 cell analysis. On the next day, the section was washed with a PBS solution, and a stained tissue was analyzed with a confocal microscope.

[6] = tested on: animal models induced with obesity; experiment: Weight reduction effect in mice induced with obesity using a high fat food; format: in vivo, C57BL/6(H-2kb) mouse; details: 300 mg/kg oral
Description: The inventors of the present disclosure prepared animal models induced with obesity in order to check whether rebamipide has an effect of treating obesity. As a test animal, a C57BL/6(H-2kb) mouse was used. In order to prepare animal models induced with obesity, a high fat food was fed to the animal models induced with obesity. After rebamipide was orally administered with a dose of 300 mg/kg to the animal models induced with obesity, weights of a rebamipide-treated group and a control group induced with obesity were measured.

[7] = tested on: animal model with obesity induced arthritis; experiment: Arthritis index in obesity induced arthritis (collagen induced arthritis) model; format: in vivo, C57BL/6 mouse; details: 300 mg/kg oral, 10 times, three times per week, up to 61 days, FIG. 11

`O=C(NC(Cc1cc(=O)[nH]c2ccccc12)C(=O)O)c1ccc(Cl)cc1` (centres unmarked) [rebamipide, 2-(4-chlorobenzoylamino)-3-[2(1H)-quinolinon-4-yl]propionic acid] was tested, and the HDL-cholesterol in serum [1] was “slightly increased; also recorded: not statistically significant but increased”, the LDL-cholesterol in serum [1] was “statistically significantly reduced; also recorded: statistically significantly decreased” and the glucose in serum [1] was “statistically significantly reduced; also recorded: statistically significantly decreased”. For the same molecule, the “total cholesterol in serum” value [1] was “statistically significantly reduced; also recorded: statistically significantly decreased”, the triglyceride in serum [1] was “statistically significantly reduced; also recorded: statistically significantly decreased” and the “differentiation of adipocyte (Oil red O)” value (pre-adipocyte) was “differentiation of adipocyte did not occur”. The adipocyte in liver [2] was “remarkably reduced”, the “type-II-collagen-specific IgG2a in serum” value [3] was “significantly decreased” and the “type-II-collagen-specific IgG in serum” value [3] was “significantly decreased”. For the same molecule, the weight ([4]; 30 mg/kg and 100 mg/kg oral, vs control group, FIG. 6A) was “statistically reduced”, the weight reduction effect ([4]; 30 mg/kg oral, FIG. 6A) was “a weight reduction effect was illustrated” and the liver appearance ([4]; 100 mg/kg oral, 63rd day, FIG. 6B) was “bright red similarly to a liver of a normal control mouse”. For the same molecule, the weight reduction effect ([4]; 100 mg/kg oral, FIG. 6A) was “highest”, the “Th17 cells in blood” value (Th17 cells; FIG. 4A) was “significantly reduced” and the “Th17 cells in spleen” value (Th17 cells; FIG. 4B) was “significantly reduced”. The “Treg cells in spleen” value [5] was “increased”, the “expression of Th17 in spleen” value [5] was “reduced” and the “liver appearance with the naked eye” value ([6]; killed on the 51st day, FIG. 1B) was “bright red like a liver of a normal mouse”. For the same molecule, the weight ([6]; obese mice on high fat food, vs control group, FIG. 1A) was “statistically significantly decreased” and the arthritis index [7] was “decreased”.
